The values that follow are results of earlier work, collected in US8722101B2, “Use of iron(III) complex compounds” (Vifor (International) AG, priority 2005, dated 2014).

The conditions of this series: children with iron-related anaemia; administration for 75 days.

Regarding `O=S(=O)([O-])[O-].[Fe+2]` [iron sulfate], the “improvement in the mental and psychomotor development” value was “did not find any improvement”.
